The text below walks through data of patent US20020028938A1, “Prostaglandin endoperoxide H synthase biosynthesis inhibitors” (priority 1997, published 2002).

As usually defined, the IC50 is the midpoint of a concentration-inhibition curve. By melting point is commonly meant the temperature, or range, at which the solid turns liquid.

Data set [1] has as its target T1, recombinant human Cox-2 (r-hu Cox-2) (Homo sapiens, UniProt P35354).
T1 construct: made in house; host or cells: baculovirus/Sf9 insect cells (microsomes)
T1 sequence (P35354 18-604): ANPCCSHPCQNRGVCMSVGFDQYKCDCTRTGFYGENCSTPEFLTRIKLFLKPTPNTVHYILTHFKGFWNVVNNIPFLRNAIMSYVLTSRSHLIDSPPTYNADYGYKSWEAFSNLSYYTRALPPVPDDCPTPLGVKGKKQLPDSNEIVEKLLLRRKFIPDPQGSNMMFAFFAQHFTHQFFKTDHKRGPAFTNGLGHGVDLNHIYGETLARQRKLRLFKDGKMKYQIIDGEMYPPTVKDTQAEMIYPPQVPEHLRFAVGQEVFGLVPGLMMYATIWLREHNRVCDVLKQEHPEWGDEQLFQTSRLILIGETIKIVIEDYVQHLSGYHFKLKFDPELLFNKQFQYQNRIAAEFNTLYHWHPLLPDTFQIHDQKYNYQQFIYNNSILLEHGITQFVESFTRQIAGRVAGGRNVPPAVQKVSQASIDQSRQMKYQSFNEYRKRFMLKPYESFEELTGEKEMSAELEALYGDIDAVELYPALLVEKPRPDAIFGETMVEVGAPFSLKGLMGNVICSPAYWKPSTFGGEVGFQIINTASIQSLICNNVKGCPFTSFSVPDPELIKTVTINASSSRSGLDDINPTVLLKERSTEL
Put plainly: Recombinant human PGHS-2 enzyme assay (RHUCX2). The format is biochemical. On the procedure: (§1) To compare the mean responses of the treatment groups, analysis of variance was applied. Percent inhibition values were determined by comparing the individual treatment mean values to the mean of the control group. Linear regression was used to estimate IC50's/ED50's in appropriate assays.
(§2) EIA reagents for prostaglandin determination were purchased from Perseptive Diagnostics, (Cambridge, Mass.). Prostaglandin E2 (PGE2) levels in lavage fluids were determined after the samples were dried under nitrogen and reconstituted with assay buffer. PGE2 levels in enzyme assays or cell culture media were measured against standards prepared in the same milieu. The immunoassays were conducted as recommended by the manufacturer. The EIA was conducted in 96 well microtiter plates (Nunc Roskilde, Denmark) and optical density was measured using a microplate reader (Vmax, Molecular Devices Corp., Menlo Park, Calif.).
(§3) Inhibition of prostaglandin biosynthesis in vitro was evaluated using recombinant human Cox-1 (r-hu Cox1) and Cox-2 (r-hu Cox-2) enzyme assays. […] The reaction was allowed to run for 2.5 minutes at room temperature prior to quenching with HCl and neutralization with NaOH. PGE2 production in the presence and absence of the drug was determined by EIA analysis. The EIA was conducted in 96 well microtiter plates (Nunc Roskilde, Denmark) and optical density was measured using a microplate reader (Vmax, Molecular Devices Corp., Menlo Park, Calif.). EIA reagents for prostaglandin determination were purchased from Perseptive Diagnostics (Cambridge, Mass.). PGE2 levels were measured against standards prepared in the same milieu. The immunoassays were conducted as recommended by the manufacturer.

Data set [2] has as its target T2, recombinant human Cox-1 (r-hu Cox1) (Homo sapiens, UniProt P23219).
T2 construct: made in house; host or cells: baculovirus/Sf9 insect cells (microsomes)
Kind of data set: Recombinant human PGHS-1 enzyme assay (RHUCX1). The format is biochemical. On the procedure: as §1, §2, §3

The mark [3] stands for this setting: 0.1 μM, read-out: RHUCX2 % Inh. at Dose.
[4] abbreviates: 1 μM, read-out: RHUCX2 % Inh. at Dose.
Where [5] appears, read: 100 μM, read-out: RHUCX1 % Inh. at Dose.

T2 sequence (P23219 24-599): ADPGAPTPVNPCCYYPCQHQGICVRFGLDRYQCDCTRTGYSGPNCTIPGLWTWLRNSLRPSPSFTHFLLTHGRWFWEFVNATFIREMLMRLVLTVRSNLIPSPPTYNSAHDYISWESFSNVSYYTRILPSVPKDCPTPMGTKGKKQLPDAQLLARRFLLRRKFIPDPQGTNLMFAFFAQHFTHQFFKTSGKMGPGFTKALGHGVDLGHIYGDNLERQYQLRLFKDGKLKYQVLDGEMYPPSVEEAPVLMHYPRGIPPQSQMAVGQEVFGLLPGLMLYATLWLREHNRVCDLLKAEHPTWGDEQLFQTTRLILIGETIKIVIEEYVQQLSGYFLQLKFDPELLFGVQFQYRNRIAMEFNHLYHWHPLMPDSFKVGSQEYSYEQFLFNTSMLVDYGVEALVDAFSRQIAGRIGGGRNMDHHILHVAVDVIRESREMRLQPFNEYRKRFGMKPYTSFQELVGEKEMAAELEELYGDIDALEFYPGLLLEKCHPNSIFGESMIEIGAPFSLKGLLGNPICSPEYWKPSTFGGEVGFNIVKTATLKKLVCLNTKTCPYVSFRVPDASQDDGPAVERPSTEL

With `COc1ccc(CCOc2c(-c3ccc(S(C)(=O)=O)cc3)cnn(CC(F)(F)F)c2=O)cc1OC` [Example 272], the “RHUCX2 % Inh. at Dose (μM)” value in data set [1] (0.1 μM) is listed as 55 @ 0.1%; in data set [1] (1 μM), 70 @ 1%. Moreover, the “RHUCX1 % Inh. at Dose (μM)” value in data set [2] (100 μM) is on record as 0 @ 100%.
In the case of `CS(=O)(=O)c1ccc(-c2cnn(CC#Cc3ccccc3)c(=O)c2-c2ccc(F)cc2)cc1` [Example 21, 2-(Phenylpropargyl)-4-(4-fluorophenyl)-5-[4-(methylsulfonyl)phenyl]-3(2H)-pyridazinone], the 50% inhibitory concentration (IC50) in data set [1] (read-out: RHUCX2 IC50 (parenthetical value)) was found to be 0.92 µM. Also, in data set [2] (100 μM), the “RHUCX1 % Inh. at Dose (μM)” value is reported as 19 @ 100%.
`CS(=O)(=O)c1ccc(-c2cnn(CC(F)(F)F)c(=O)c2SC2CCCC2)cc1` [Example 283]: the “RHUCX2 % Inh. at Dose (μM)” value in data set [1] (0.1 μM) is reported as 54 @ 0.1%; in data set [1] (1 μM), 71 @ 1%; in data set [1] (10 μM), 90 @ 10%. Besides, the “RHUCX1 % Inh. at Dose (μM)” value in data set [2] (100 μM) is on record as 0 @ 100%.
As to `Cc1ccc(-c2c(-c3ccc(S(C)(=O)=O)cc3)cnn(CC(F)(F)F)c2=O)cc1F` [Example 219, 2-(2,2,2-Trifluoroethyl)-4-(3-fluoro-4-methylphenyl)-5-[4-(methylsulfonyl)phenyl]-3(2H)-pyridazinone], the inhibition at 0.1 µM in data set [1] (setting [3]) amounted to 75%. The inhibition at 1 µM in data set [1] (setting [4]) stood at 90%. The inhibition at 100 µM in data set [2] (setting [5]) was 20%.
For `CS(=O)(=O)c1ccc(-c2cnn(CC(F)(F)F)c(=O)c2OC2CCCCC2)cc1` [Example 84], in data set [1] (0.3 μM), the “RHUCX2 % Inh. at Dose (μM)” value is reported as 87 @ 0.3%. Further, the entries for the “RHUCX1 % Inh. at Dose (μM)” value in data set [2] (1 μM) and in data set [2] (10 μM) were 9 @ 1% and 49 @ 10%, respectively.
In the case of `CS(=O)(=O)c1ccc(-c2cnn(-c3cccc(Br)c3)c(=O)c2Oc2ccc(F)cc2)cc1` [Example 110], the “RHUCX2 % Inh. at Dose (μM)” value in data set [1] (0.1 μM) is recorded as 50 @ 0.1%; in data set [1] (1 μM), 93 @ 1%. Also, the “RHUCX1 % Inh. at Dose (μM)” value in data set [2] (100 μM) is 5 @ 100%.
Turning to `CC(C)CCc1c(-c2ccc(S(C)(=O)=O)cc2)cnn(CC(F)(F)F)c1=O` [Example 209], the “RHUCX2 % Inh. at Dose (μM)” value in data set [1] (0.01 μM) was 40 @ 0.01%; in data set [1] (0.1 μM), 55 @ 0.1%; in data set [1] (1 μM), 79 @ 1%. Moreover, the “RHUCX1 % Inh. at Dose (μM)” value in data set [2] (100 μM) was 0 @ 100%.
With `C=C(C)Cn1ncc(-c2ccc(S(C)(=O)=O)cc2)c(-c2ccc(F)cc2)c1=O` [Example 23, 2-(Methyl-2-propenyl)-4-(4-fluorophenyl)-5-[4-(methylsulfonyl)phenyl]-3(2H)-pyridazinone], the “RHUCX2 % Inh. at Dose (μM)” value in data set [1] (0.01 μM) was 27 @ 0.01%; in data set [1] (0.1 μM), 68 @ 0.1%. In data set [2] (100 μM), the “RHUCX1 % Inh. at Dose (μM)” value is given as 0 @ 100%.
Consider `CC(C)=CCOc1c(-c2ccc(S(C)(=O)=O)cc2)cnn(-c2ccc(F)cc2)c1=O` [Example 422], for which the “RHUCX2 % Inh. at Dose (μM)” value in data set [1] (0.1 μM) is 37 @ 0.1%; in data set [1] (1 μM), 52 @ 1%. In addition, the “RHUCX1 % Inh. at Dose (μM)” value in data set [2] (1 μM) is reported as 76 @ 1%; in data set [2] (10 μM), 82 @ 10%; in data set [2] (100 μM), 53 @ 100%.
Regarding `Cc1nn(CC(F)(F)F)c(=O)c(-c2ccc(F)cc2)c1-c1ccc(S(C)(=O)=O)cc1` [Example 64], the “RHUCX2 % Inh. at Dose (μM)” value in data set [1] (0.1 μM) is on record as 36 @ 0.1%; in data set [1] (1 μM) it was 34 @ 1%. Further, in data set [2] (1 μM), the “RHUCX1 % Inh. at Dose (μM)” value is 68 @ 1%.
`CS(=O)(=O)c1ccc(-c2cnn(Cc3ccccc3)c(=O)c2-c2cc3ccccc3o2)cc1` [Example 318, 2-Benzyl-4-(2-benzofuranyl)-5-[4-(methylsulfonyl)phenyl]-3(2H)-pyridazinone]: the inhibition at 0.1 µM in data set [1] (setting [3]) amounted to 77%. The inhibition at 1 µM in data set [1] (setting [4]) is 97%. In data set [2] (setting [5]), the inhibition at 100 µM came out at 23%.
As for `CS(=O)(=O)c1ccc(-c2cnn(CC(=O)c3ccc(F)cc3F)c(=O)c2-c2ccc(F)cc2)cc1` [Example 41, 2-(2,4-Difluorophenacyl)-4-(4-fluorophenyl)-5-[4-(methylsulfonyl)phenyl]-3(2H)-pyrdazinone], the figures for the “RHUCX2 % Inh. at Dose (μM)” value in data set [1] (0.1 μM) and in data set [1] (1 μM) were 17 @ 0.1% and 49 @ 1%, respectively. Also, the “RHUCX1 % Inh. at Dose (μM)” value in data set [2] (100 μM) was 13 @ 100%.
Take `COc1c(F)cc(-c2c(-c3ccc(S(C)(=O)=O)cc3)cnn(CC(F)(F)F)c2=O)cc1F` [Example 220, 2-(2,2,2-Trifluoroethyl)-4-(3,5-difluoro-4-methoxyphenyl)-5-[4-(methylsulfonyl)phenyl]-3(2H)-pyridazinone]: the inhibition at 0.1 µM in data set [1] (setting [3]) amounted to 90%. Also, the inhibition at 1 µM in data set [1] (setting [4]) came out at 96%; in data set [2] (1 μM, read-out: RHUCX1 % Inh. at Dose), 38%. Also, the inhibition at 100 µM in data set [2] (setting [5]) is 51%.
`O=c1c(-c2ccc(F)cc2)c(-c2ccc(S(=O)(=O)C(F)(F)F)cc2)cnn1Cc1ccccc1` [Example 260, 2-Benzyl-4-(4-fluorophenyl)-5-[4-(trifluoromethylsulfonyl)phenyl]-3(2H)-pyridazinone]: in data set [1] (10 μM, read-out: RHUCX2 % Inh. at Dose), the inhibition at 10 µM came out at 2%. The inhibition at 100 µM in data set [2] (setting [5]) came to 8%.
Regarding `CS(=O)(=O)c1ccc(-c2cnn(CC(F)(F)F)c(=O)c2Nc2ccc(F)cc2F)cc1` [Example 314], the “RHUCX2 % Inh. at Dose (μM)” value in data set [1] (1 μM) is listed as 4 @ 1%; in data set [1] (10 μM), 51 @ 10%. In addition, in data set [2] (100 μM), the “RHUCX1 % Inh. at Dose (μM)” value is on record as 7 @ 100%.
The compound `CC(C)(O)COc1c(-c2ccc(S(N)(=O)=O)cc2)cnn(-c2ccc(F)c(Cl)c2)c1=O` [Example 480, 2-(3-Chloro-4-fluorophenyl)-4-(2-hydroxy-2-methyl-1-propoxy)-5-[4-(aminosulfonyl)phenyl]-3(2H)-pyridazinone] registered a melting point of 176 to 178 °C.
Same read-out and setting: to `CSc1ccc(-c2cnn(-c3ccc(F)cc3)c(=O)c2OC(C)C)cc1` [Example 199, 2-(4-Fluorophenyl)-4-(2-propoxy)-5-[4-(methylthio)phenyl]-3(2H)-pyridazinone] belongs 135 to 137 °C; to `CS(=O)(=O)c1ccc(-c2cnn(-c3cccc(Cl)c3)c(=O)c2SCc2ccco2)cc1` [Example 360, 2-(3-Chlorophenyl)-4-(2-furylmethylthio)-5-[4-(methylsulfonyl)phenyl]-3(2H)-pyridazinone], 140 to 149 °C.
Still for that read-out and setting: the figure for `CS(=O)(=O)c1ccc(-c2cnn(-c3ccc(F)cc3)c(=O)c2OCCC2CC2)cc1` [Example 417, 2-(4-Fluorophenyl)-4-(2-cyclopropyl-1-ethoxy)-5-[4-(methylsulfonyl)phenyl]-3(2H)-pyridazinone] is 111 to 117 °C; for `CS(=O)(=O)c1ccc(-c2cnn(-c3cccc(C(F)(F)F)c3)c(=O)c2-c2ccc(Cl)cc2)cc1` [Example 101, 2-(3-Trifluoromethylphenyl)-4-(4-chlorophenyl)-5-[4-(methylsulfonyl)phenyl]-3(2H)-pyridazinone] it is 103 to 105 °C.
The compound `NS(=O)(=O)c1ccc(-c2cnn(CC(F)(F)F)c(=O)c2Oc2ccc(F)cc2)cc1` [Example 71, 2-(2,2,2-Trifluoroethyl)-4-(4-fluorophenoxy)-5-[4-(aminosulfonyl)phenyl]-3(2H)-pyridazinone] displayed a melting point of 150 to 152 °C.
Same read-out and setting: to `CS(=O)(=O)c1ccc(-c2cnn(CC(F)(F)F)c(=O)c2NCCCO)cc1` [Example 305, 2-(2,2,2-Trifluoroethyl)-4-(3-hydroxypropylamino)-5-[4-(methylsulfonyl)phenyl]-3(2H)-pyridazinone] belongs 152 to 154 °C.
The same measure, in the same setting: the figure for `CCOc1c(-c2ccc(S(C)(=O)=O)cc2)cnn(-c2ccc(F)c(F)c2)c1=O` [Example 436, 2-(3,4-Difluorophenyl)-4-ethoxy-5-[4-(methylsulfonyl)phenyl]-3(2H)-pyridazinone] is 121 to 123 °C; for `CC(=O)CCOc1c(-c2ccc(S(C)(=O)=O)cc2)cnn(-c2ccc(F)cc2)c1=O` [Example 468, 2-(4-Fluorophenyl)-4-(3-oxo-1-butoxy)-5-[4-(methylsulfonyl)phenyl]-3(2H)-pyridazinone] it is 133 to 136 °C.
